{
  "source": "ChEMBL document CHEMBL1201862",
  "about": "“PubChem BioAssay data set” (2004)",
  "key": {"Cytochrome P450 2C9": {"molecular_target": "Cytochrome P450 2C9 (Homo sapiens, UniProt P11712)", "sequence (P11712 whole entry)": "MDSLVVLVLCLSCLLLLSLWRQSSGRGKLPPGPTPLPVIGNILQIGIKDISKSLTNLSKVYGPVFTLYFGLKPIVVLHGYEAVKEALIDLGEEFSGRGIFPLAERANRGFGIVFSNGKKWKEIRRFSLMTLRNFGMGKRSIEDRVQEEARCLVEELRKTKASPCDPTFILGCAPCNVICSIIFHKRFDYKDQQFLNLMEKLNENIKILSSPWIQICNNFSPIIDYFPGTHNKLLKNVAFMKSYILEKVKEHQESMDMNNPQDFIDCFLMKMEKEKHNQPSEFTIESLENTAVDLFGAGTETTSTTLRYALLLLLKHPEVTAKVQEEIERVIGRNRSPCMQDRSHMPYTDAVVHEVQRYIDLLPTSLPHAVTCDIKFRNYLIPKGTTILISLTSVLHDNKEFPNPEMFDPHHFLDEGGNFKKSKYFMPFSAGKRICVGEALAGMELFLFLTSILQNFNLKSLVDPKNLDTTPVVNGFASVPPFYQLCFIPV"}, "Cytochrome P450 2D6": {"molecular_target": "Cytochrome P450 2D6 (Homo sapiens, UniProt P10635)", "sequence (P10635 whole entry)": "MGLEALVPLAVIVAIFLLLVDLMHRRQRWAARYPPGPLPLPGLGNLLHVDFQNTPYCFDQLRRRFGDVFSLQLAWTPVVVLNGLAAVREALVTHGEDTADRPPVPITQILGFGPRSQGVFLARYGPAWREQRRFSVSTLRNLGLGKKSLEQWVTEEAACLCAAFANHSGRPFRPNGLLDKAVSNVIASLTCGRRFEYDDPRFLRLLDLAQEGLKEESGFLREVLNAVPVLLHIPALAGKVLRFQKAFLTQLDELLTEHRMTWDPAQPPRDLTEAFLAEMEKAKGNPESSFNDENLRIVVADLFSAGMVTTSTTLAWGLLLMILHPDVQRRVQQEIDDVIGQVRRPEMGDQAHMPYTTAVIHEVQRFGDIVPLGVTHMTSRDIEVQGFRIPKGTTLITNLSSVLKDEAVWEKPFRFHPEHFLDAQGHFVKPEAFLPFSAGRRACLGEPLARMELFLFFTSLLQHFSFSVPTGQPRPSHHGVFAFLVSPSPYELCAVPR"}, "Cytochrome P450 3A4": {"molecular_target": "Cytochrome P450 3A4 (Homo sapiens, UniProt P08684)", "sequence (P08684 whole entry)": "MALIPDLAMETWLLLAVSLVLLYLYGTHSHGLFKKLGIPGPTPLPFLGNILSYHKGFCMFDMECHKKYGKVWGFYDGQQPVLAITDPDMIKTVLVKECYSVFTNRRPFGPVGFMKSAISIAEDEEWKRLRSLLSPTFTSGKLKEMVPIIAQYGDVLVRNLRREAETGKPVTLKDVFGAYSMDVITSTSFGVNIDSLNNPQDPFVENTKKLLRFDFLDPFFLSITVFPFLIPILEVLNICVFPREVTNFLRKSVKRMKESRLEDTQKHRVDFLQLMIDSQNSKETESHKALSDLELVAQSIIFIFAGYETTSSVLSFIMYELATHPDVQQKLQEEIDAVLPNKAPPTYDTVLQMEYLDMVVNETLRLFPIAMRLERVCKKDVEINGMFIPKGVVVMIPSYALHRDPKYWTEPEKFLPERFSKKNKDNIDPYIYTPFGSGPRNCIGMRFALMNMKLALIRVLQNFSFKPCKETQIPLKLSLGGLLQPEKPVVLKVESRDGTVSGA"}, "[1]": {"molecular_target": "T1, Replicative DNA helicase DnaB (Mycobacterium tuberculosis, UniProt P9WMR3)", "T1 sequence (P9WMR3 whole entry)": "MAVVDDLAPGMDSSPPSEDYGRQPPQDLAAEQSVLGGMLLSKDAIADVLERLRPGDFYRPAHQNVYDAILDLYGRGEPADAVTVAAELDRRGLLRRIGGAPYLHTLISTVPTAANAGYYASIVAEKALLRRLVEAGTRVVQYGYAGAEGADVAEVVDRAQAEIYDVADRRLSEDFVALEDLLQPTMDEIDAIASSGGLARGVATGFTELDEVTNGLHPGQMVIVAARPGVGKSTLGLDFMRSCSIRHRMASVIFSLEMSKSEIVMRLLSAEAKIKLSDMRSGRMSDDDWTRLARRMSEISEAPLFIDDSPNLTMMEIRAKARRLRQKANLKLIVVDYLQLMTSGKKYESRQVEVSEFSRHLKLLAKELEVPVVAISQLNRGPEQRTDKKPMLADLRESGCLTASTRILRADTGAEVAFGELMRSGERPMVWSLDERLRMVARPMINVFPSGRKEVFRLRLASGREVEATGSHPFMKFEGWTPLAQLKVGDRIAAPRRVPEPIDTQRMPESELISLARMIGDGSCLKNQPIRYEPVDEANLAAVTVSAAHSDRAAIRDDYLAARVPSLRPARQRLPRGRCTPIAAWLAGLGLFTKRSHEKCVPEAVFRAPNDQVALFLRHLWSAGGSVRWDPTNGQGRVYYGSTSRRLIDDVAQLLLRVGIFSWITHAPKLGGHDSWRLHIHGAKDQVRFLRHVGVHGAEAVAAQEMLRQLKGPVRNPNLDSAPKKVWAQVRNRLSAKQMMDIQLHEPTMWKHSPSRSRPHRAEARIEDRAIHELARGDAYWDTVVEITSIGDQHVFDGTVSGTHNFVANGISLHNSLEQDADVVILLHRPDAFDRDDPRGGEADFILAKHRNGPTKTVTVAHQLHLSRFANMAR", "experiment": "DnaB intein splicing inhibitors, dose response, biochemical, cell-free fluorescence (AID 449749)", "format": "functional"}, "Protein RecA": {"molecular_target": "T2, Protein RecA (Mycobacterium tuberculosis, UniProt P9WHJ3)", "T2 sequence (P9WHJ3 whole entry)": "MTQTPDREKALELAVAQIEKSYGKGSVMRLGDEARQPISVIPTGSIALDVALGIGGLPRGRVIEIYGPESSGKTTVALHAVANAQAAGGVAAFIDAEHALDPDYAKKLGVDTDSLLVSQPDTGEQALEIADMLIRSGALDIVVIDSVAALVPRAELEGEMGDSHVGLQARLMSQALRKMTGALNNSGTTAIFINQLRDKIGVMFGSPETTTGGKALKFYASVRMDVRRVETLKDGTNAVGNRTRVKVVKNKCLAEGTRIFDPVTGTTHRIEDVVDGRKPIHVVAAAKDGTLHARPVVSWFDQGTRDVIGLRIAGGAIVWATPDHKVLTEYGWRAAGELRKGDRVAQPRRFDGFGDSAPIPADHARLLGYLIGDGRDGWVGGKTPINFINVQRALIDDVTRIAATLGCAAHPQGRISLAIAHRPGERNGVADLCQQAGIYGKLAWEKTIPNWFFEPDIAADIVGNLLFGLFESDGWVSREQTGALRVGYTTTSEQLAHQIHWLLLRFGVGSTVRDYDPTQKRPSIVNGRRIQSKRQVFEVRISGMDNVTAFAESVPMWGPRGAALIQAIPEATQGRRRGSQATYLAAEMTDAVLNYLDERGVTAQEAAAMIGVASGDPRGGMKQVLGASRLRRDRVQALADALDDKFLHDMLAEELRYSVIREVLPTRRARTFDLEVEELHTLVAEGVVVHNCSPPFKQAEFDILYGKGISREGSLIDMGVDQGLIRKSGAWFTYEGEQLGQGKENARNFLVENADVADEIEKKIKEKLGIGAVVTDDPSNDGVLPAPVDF", "experiment": "Fluorescence Cell-Free Homogeneous Dose Retest to Identify Inhibitors of RecA-Intein Splicing Activity. [Related pubchem assays (depositor defined):AID2097, AID2223, AID489010, AID492950]", "format": "functional"}, "[2]": {"molecular_target": "T3, Heat shock factor protein 1 (Mus musculus, UniProt P38532)", "T3 sequence (P38532 whole entry)": "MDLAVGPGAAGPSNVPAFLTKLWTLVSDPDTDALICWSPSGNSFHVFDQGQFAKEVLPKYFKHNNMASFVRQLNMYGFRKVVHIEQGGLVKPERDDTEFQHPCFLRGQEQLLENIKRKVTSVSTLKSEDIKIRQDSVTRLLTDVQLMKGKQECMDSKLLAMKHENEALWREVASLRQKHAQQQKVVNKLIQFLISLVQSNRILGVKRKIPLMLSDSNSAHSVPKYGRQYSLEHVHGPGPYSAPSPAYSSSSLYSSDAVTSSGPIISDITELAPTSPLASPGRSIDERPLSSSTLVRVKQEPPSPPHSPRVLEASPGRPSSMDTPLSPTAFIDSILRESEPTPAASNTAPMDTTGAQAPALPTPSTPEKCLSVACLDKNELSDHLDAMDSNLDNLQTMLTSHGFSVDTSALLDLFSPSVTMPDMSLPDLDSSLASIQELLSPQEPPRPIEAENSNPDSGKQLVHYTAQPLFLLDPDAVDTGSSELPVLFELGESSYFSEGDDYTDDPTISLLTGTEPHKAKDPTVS", "experiment": "decrease of HSF1-responsive luciferase luminescence – cell-based, NIH3T3, dose retest, confirmation (AID 2382);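 further: NIH3T3 fibroblasts with HSF1-driven luciferase reporter stressed by proteasome inhibitor MG132; luminescence from HSF1-driven luciferase expression after 8 hours of MG132 stress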", "format": "functional"}, "Cytochrome P450 2C19": {"molecular_target": "Cytochrome P450 2C19 (Homo sapiens, UniProt P33261)", "sequence (P33261 whole entry)": "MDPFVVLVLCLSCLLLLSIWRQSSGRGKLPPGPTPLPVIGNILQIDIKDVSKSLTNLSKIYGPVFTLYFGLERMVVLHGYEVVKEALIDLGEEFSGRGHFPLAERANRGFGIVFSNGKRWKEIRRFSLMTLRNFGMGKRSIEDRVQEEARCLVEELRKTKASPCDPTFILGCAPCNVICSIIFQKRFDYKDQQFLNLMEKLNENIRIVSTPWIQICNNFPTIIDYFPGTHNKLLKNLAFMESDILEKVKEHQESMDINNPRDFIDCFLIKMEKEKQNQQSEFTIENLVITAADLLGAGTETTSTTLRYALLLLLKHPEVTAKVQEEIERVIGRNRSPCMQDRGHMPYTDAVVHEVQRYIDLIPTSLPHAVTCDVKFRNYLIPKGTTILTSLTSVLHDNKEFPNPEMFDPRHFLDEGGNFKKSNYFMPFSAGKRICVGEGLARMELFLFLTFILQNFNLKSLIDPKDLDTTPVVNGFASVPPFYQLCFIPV", "experiment": "Cytochrome panel assay with activity outcomes. Panel member name: p450-cyp2c19 Compounds with AC50 equal or less than 10 uM are considered active", "format": "functional", "settings": "read-out: AC50"}},
  "note": "Active and inactive are the calls of the source.",
  "data": [
    {"smiles": "CC#CCOC(=O)c1c(C)nc2sc3c(c2c1N)CC[C@@H](O)C3", "values": [
      {"measurement": "AC50", "setting": "Cytochrome P450 2C9", "value": "15.8 µM (inconclusive)"},
      {"measurement": "AC50", "setting": "Cytochrome P450 2D6", "value": "31.6 µM (inconclusive)"}
    ]},
    {"smiles": "COC(=O)[C@@]1(Cc2ccccc2)[C@H]2c3cc(C(=O)N(C)C)n(Cc4ccc(O)c(OC)c4)c3C[C@H]2CN1C(=O)c1ccccc1", "values": [
      {"measurement": "AC50", "setting": "Cytochrome P450 2D6", "value": "31.6 µM (inconclusive)"}
    ]},
    {"smiles": "Cc1c(CCC(C)C)c(-n2ccnc2C)n2c(nc3ccccc32)c1C#N", "values": [
      {"measurement": "AC50", "setting": "Cytochrome P450 2C9", "value": "3.98 µM (inconclusive)"},
      {"measurement": "AC50", "setting": "Cytochrome P450 3A4", "value": "14.1 µM (inconclusive)"}
    ]},
    {"smiles": "O=[N+]([O-])c1ccc(C2=Nn3c(nnc3-c3ccc(Cl)cc3)SC2)o1", "values": [
      {"measurement": "AC50", "setting": "Cytochrome P450 2C9", "value": "7.94 µM (inconclusive)"},
      {"measurement": "AC50", "setting": "Cytochrome P450 2D6", "value": "5.01 µM (inconclusive)"}
    ]},
    {"smiles": "Cc1ccccc1C(=O)N1CCc2ccccc2C1", "values": [
      {"measurement": "AC50", "setting": "Cytochrome P450 2C9", "value": "5.62 µM (inconclusive)"},
      {"measurement": "AC50", "setting": "Cytochrome P450 3A4", "value": "6.31 µM (inconclusive)"}
    ]},
    {"smiles": "Cc1ccc(-c2csc(NC(=O)CSC3=NCCS3)n2)cc1", "values": [
      {"measurement": "AC50", "setting": "[1]", "value": "14.6 µM (active)"},
      {"measurement": "EC50", "setting": "Protein RecA", "value": "3.83 µM (active)"}
    ]},
    {"smiles": "FC(F)Oc1ccc(NC(S)=NNc2ccnc3cc(Cl)ccc23)cc1", "values": [
      {"measurement": "EC50", "setting": "[2]", "value": "> 195 µM (not active)"}
    ]},
    {"smiles": "Cc1ccc(-n2nc(C)c3c2OC(N)=C(C#N)C3c2ccccc2F)cc1", "note": "(configuration not stated)", "values": [
      {"measurement": "AC50", "setting": "[1]", "value": "5.37 µM (active)"},
      {"measurement": "EC50", "setting": "Protein RecA", "value": "24 µM (inconclusive)"}
    ]},
    {"smiles": "Cc1cc2c(cc1C)NC1=C(O)[C@@H](c3c[nH]c4ccc(COc5ccccc5)cc34)OC1=N2", "values": [
      {"measurement": "AC50", "setting": "Cytochrome P450 2C9", "value": "7.94 µM (inconclusive)"}
    ]},
    {"smiles": "COc1cccc(/C=C(\\C#N)c2nc3ccccc3[nH]2)c1OCC(=O)O", "values": [
      {"measurement": "EC50", "setting": "[2]", "value": "> 195 µM (not active)"}
    ]},
    {"smiles": "O=C(CSc1nc2ccccc2c2ccccc12)c1ccccc1", "values": [
      {"measurement": "AC50", "setting": "Cytochrome P450 2C19", "value": "6.31 µM (inconclusive)"},
      {"measurement": "AC50", "setting": "Cytochrome P450 3A4", "value": "3.98 µM (inconclusive)"}
    ]},
    {"smiles": "O=C(Nc1cccc(S(=O)(=O)N2CCOCC2)c1)c1ccccn1", "values": [
      {"measurement": "EC50", "setting": "[2]", "value": "> 195 µM (not active)"}
    ]},
    {"smiles": "COCCN(C(S)=Nc1c(C)cccc1C)C(C)c1cccnc1", "note": "(configuration not stated)", "values": [
      {"measurement": "EC50", "setting": "[2]", "value": "> 195 µM (not active)"}
    ]},
    {"smiles": "COC(=O)[C@@H]1CC[C@H](C)[C@@H](c2ccc(C)cc2)N1C(=O)c1ccc(/C=N\\O[C@@H](C)CN2CCCc3nc(C)c(C)cc32)cc1", "values": [
      {"measurement": "AC50", "setting": "Cytochrome P450 2C9", "value": "3.16 µM (inconclusive)"},
      {"measurement": "AC50", "setting": "Cytochrome P450 3A4", "value": "3.98 µM (inconclusive)"},
      {"measurement": "AC50", "setting": "Cytochrome P450 2D6", "value": "6.31 µM (inconclusive)"}
    ]},
    {"smiles": "CCCC/C=C/C(NC(=O)c1ccco1)c1ccccc1", "note": "(configuration not stated)", "values": [
      {"measurement": "AC50", "setting": "Cytochrome P450 2D6", "value": "39.8 µM (inconclusive)"}
    ]},
    {"smiles": "CN(CC(=O)Nc1cccc(F)c1)CC(=O)Nc1cccc(S(N)(=O)=O)c1", "values": [
      {"measurement": "EC50", "setting": "[2]", "value": "> 195 µM (not active)"}
    ]},
    {"smiles": "O=c1c2ccccc2c(-c2ccc(Br)cc2)nn1Cc1ccccc1", "values": [
      {"measurement": "AC50", "setting": "Cytochrome P450 2C9", "value": "3.55 µM (inconclusive)"},
      {"measurement": "AC50", "setting": "Cytochrome P450 2C19", "value": "5.62 µM (inconclusive)"},
      {"measurement": "AC50", "setting": "Cytochrome P450 3A4", "value": "25.1 µM (inconclusive)"}
    ]},
    {"smiles": "Cc1nc(-c2cccnc2)sc1C(N)=O", "values": [
      {"measurement": "AC50", "setting": "Cytochrome P450 2C19", "value": "5.01 µM (inconclusive)"},
      {"measurement": "AC50", "setting": "Cytochrome P450 3A4", "value": "28.2 µM (inconclusive)"}
    ]},
    {"smiles": "N#Cc1ccc(CN2CCCC3(CCNCC3)C2)cc1", "values": [
      {"measurement": "AC50", "setting": "Cytochrome P450 2D6", "value": "20 µM (inconclusive)"}
    ]},
    {"smiles": "Cc1nn(C)c(Cl)c1CN1CCC(n2nccc2NC(=O)C2CCCC2)CC1", "values": [
      {"measurement": "EC50", "setting": "[2]", "value": "> 195 µM (not active)"}
    ]},
    {"smiles": "O=C1Nc2ccccc2C(O)(C(=O)NCc2ccc3c(c2)OCO3)N1c1ccc(Cl)c(Cl)c1", "note": "(configuration not stated)", "values": [
      {"measurement": "AC50", "setting": "Cytochrome P450 2D6", "value": "1.12 µM (inconclusive)"}
    ]},
    {"smiles": "NC1=NN(c2cccc(C(=O)O)c2)C(=O)C1", "values": [
      {"measurement": "AC50", "setting": "[1]", "value": "20 µM (active)"},
      {"measurement": "EC50", "setting": "Protein RecA", "value": "23.7 µM (inconclusive)"}
    ]},
    {"smiles": "N#C/C(=C(/O)CN1CCCCC1)c1nc(-c2ccc(Cl)cc2)cs1", "values": [
      {"measurement": "AC50", "setting": "Cytochrome P450 2C19", "value": "10 µM (inconclusive)"},
      {"measurement": "AC50", "setting": "Cytochrome P450 3A4", "value": "10 µM (inconclusive)"}
    ]}
  ]
}
